Test results from patent US12065471B2, “B*44 restricted peptides for use in immunotherapy against cancers and related methods” (Immatics Biotechnologies GmbH, priority 2018, dated 2024).

Key:
CD8+ T cells = experiment: In vitro immunogenicity: T-cell priming with aAPCs loaded with peptide/MHC and anti-CD28, pMHC multimer readout; assay type: cell-based, human; settings: pMHC multimer readout after T-cell priming
Method: After three cycles of stimulation, the detection of peptide-reactive cells was performed by 2D multimer staining with B*44/SEQ ID NO: 469 (FIG. 3A), B*44/SEQ ID NO: 512 (FIG. 3B), B*44/SEQ ID NO: 9 (FIG. 3C), B*44/SEQ ID NO: 11 (D), B*44/SEQ ID NO: 17 (E), B*44/SEQ ID NO: 35 (F) or B*44/SEQ ID NO: 41 (FIG. 3G). Right panels (FIGS. 3A through 3G) show control staining of cells stimulated with irrelevant B*44/peptide complexes. Viable singlet cells were gated for CD8+ lymphocytes. Boolean gates helped excluding false-positive events detected with multimers specific for different peptides.
In order to obtain information regarding the immunogenicity of the TUMAPs of the present invention, the inventors performed investigations using an in vitro T-cell priming assay based on repeated stimulations of CD8+ T cells with artificial antigen presenting cells (aAPCs) loaded with peptide/MHC complexes and anti-CD28 antibody.
In order to perform in vitro stimulations by artificial antigen presenting cells loaded with peptide-MHC complex (pMHC) and anti-CD28 antibody, the inventors first isolated CD8+ T cells from fresh HLA-A*02 leukapheresis products via positive selection using CD8 microbeads (Miltenyi Biotec, Bergisch-Gladbach, Germany) of healthy donors obtained from the University clinics Mannheim, Germany, after informed consent.
PBMCs and isolated CD8+ lymphocytes were incubated in T-cell medium (TCM) until use consisting of RPMI-Glutamax (Invitrogen, Karlsruhe, Germany) supplemented with 10% heat inactivated human AB serum (PAN-Biotech, Aidenbach, Germany), 100 U/ml Penicillin/100 μg/ml Streptomycin (Cambrex, Cologne, Germany), 1 mM sodium pyruvate (CC Pro, Oberdorda, Germany), 20 μg/ml Gentamycin (Cambrex). 2.5 ng/ml IL-7 (PromoCell, Heidelberg, Germany) and 10 U/ml IL-2 (Novartis Pharma, Nümberg, Germany) were also added to the TCM at this step.
Generation of pMHC/anti-CD28 coated beads, T-cell stimulations and readout was performed in a highly defined in vitro system using four different pMHC molecules per stimulation condition and 8 different pMHC molecules per readout condition.
The purified co-stimulatory mouse IgG2a anti human CD28 Ab 9.3 (Jung et al., 1987) was chemically biotinylated using Sulfo-N-hydroxysuccinimidobiotin as recommended by the manufacturer (Perbio, Bonn, Germany). Beads used were 5.6 μm diameter streptavidin coated polystyrene particles (Bangs Laboratories, Illinois, USA).
800.000 beads/200 μl were coated in 96-well plates in the presence of 4×12.5 ng different biotin-pMHC, washed and 600 ng biotin anti-CD28 were added subsequently in a volume of 200 μl. Stimulations were initiated in 96-well plates by co-incubating 1×10^6 CD8+ T cells with 2×10^5 washed coated beads in 200 μl TCM supplemented with 5 ng/ml IL-12 (PromoCell) for 3 days at 37° C. Half of the medium was then exchanged by fresh TCM supplemented with 80 U/ml IL-2 and incubating was continued for 4 days at 37° C. This stimulation cycle was performed for a total of three times. For the pMHC multimer readout using 8 different pMHC molecules per condition, a two-dimensional combinatorial coding approach was used as previously described (Andersen et al., 2012) with minor modifications encompassing coupling to 5 different fluorochromes. Finally, multimeric analyses were performed by staining the cells with Live/dead near IR dye (Invitrogen, Karlsruhe, Germany), CD8-FITC antibody clone SK1 (BD, Heidelberg, Germany) and fluorescent pMHC multimers. For analysis, a BD LSRII SORP cytometer equipped with appropriate lasers and filters was used. Peptide specific cells were calculated as percentage of total CD8+ cells. Evaluation of multimeric analysis was done using the FlowJo software (Tree Star, Oregon, USA). In vitro priming of specific multimer+CD8+ lymphocytes was detected by comparing to negative control stimulations.

HLA-B*44:05 = HLA-B*44:05 (Homo sapiens, UniProt P01889, A223V/A65T/A93T/A95T/D201E/D98Y/E176V/E187L/E204Q/E69K/G107R/H137Y/K202T/L105A/L119I/N104T/N87E/Q56L/Q94N/R106L/R155S/R180D/S101N/S121R/S35A/S48T/T118I/V36M/W191S/Y91S); experiment: MHC binding assay (UV-ligand exchange, β2m ELISA, peptide exchange yield); settings: binding to HLA-B*44:05
Procedure, shortened: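 Peptide–HLA complexes formed by UV-ligand exchange of a UV-cleavable peptide for the test peptide. Exchange yield measured by β2m ELISA: complexes diluted 100-fold and captured on streptavidin, detected with HRP anti-β2m and TMB, read at 450 nm. Quantified against refolded HLA-A*02:01/MLA-001 monomer standards, 15-500 ng/ml.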

Substance: 49 (SEYVHSSF; listed as Homo sapiens) [compound 49]
- Wells positive [%] (CD8+ T cells; Table 10b): + (<20% = +)
- Peptide exchange (MHC class I binding score, peptide exchange yield) (HLA-B*44:05): ++ (>20% = ++)

Substance: 29 (TENPKKFKI; listed as Homo sapiens) [compound 29]
- Wells positive [%] (CD8+ T cells; Table 10b): ++++ (>=70% = ++++)
- Peptide exchange (MHC class I binding score, peptide exchange yield) (HLA-B*44:05): +++ (>50 = +++)

Substance: 19 (MEHSDENIQFW; listed as Homo sapiens) [compound 19]
- Wells positive [%] (CD8+ T cells; Table 10b): ++ (20%-49% = ++)
- Peptide exchange (MHC class I binding score, peptide exchange yield) (HLA-B*44:05): ++ (>20% = ++)

Substance: 512 (AEPLVGQRW; listed as Homo sapiens) [compound 512]
- Wells positive [%] (CD8+ T cells; Table 10a): ++++ (>=70% = ++++)

Substance: 57 (SEATHIITI; listed as Homo sapiens) [compound 57]
- Wells positive [%] (CD8+ T cells; Table 10b): ++++ (>=70% = ++++)
- Peptide exchange (MHC class I binding score, peptide exchange yield) (HLA-B*44:05): +++ (>50 = +++)

Substance: 25 (SEKEPGQQY; listed as Homo sapiens) [compound 25]
- Wells positive [%] (CD8+ T cells; Table 10b): ++ (20%-49% = ++)
- Peptide exchange (MHC class I binding score, peptide exchange yield) (HLA-B*44:05): ++ (>20% = ++)

Substance: 491 (YEVDTVLRY; listed as Homo sapiens) [compound 491]
- Wells positive [%] (CD8+ T cells; Table 10a): + (<20% = +)

Substance: 44 (SEFGAPRW; listed as Homo sapiens) [compound 44]
- Wells positive [%] (CD8+ T cells; Table 10b): ++++ (>=70% = ++++)
- Peptide exchange (MHC class I binding score, peptide exchange yield) (HLA-B*44:05): +++ (>50 = +++)

Substance: 68 (NEIDIHSIYF; listed as Homo sapiens) [compound 68]
- Wells positive [%] (CD8+ T cells; Table 10b): ++ (20%-49% = ++)
- Peptide exchange (MHC class I binding score, peptide exchange yield) (HLA-B*44:05): ++++ (>75% = ++++)

Substance: 11 (EENIVAIGI; listed as Homo sapiens) [compound 11]
- Wells positive [%] (CD8+ T cells; Table 10b): +++ (50%-69% = +++)
- Peptide exchange (MHC class I binding score, peptide exchange yield) (HLA-B*44:05): +++ (>50 = +++)

Substance: 488 (SENPETITY; listed as Homo sapiens) [compound 488]
- Wells positive [%] (CD8+ T cells; Table 10a): ++ (20%-49% = ++)

Substance: 420 (MEVDPIGHVY; listed as Homo sapiens) [compound 420]
- Wells positive [%] (CD8+ T cells; Table 10b): + (<20% = +)
- Peptide exchange (MHC class I binding score, peptide exchange yield) (HLA-B*44:05): +++ (>50 = +++)

Substance: 12 (KEVDPTGHSF; listed as Homo sapiens) [compound 12]
- Wells positive [%] (CD8+ T cells; Table 10b): + (<20% = +)
- Peptide exchange (MHC class I binding score, peptide exchange yield) (HLA-B*44:05): +++ (>50 = +++)

Substance: 460 (SEFMQVIF; listed as Homo sapiens) [compound 460]
- Wells positive [%] (CD8+ T cells; Table 10a): + (<20% = +)

Substance: 490 (TENRYCVQL; listed as Homo sapiens) [compound 490]
- Wells positive [%] (CD8+ T cells; Table 10a): ++ (20%-49% = ++)

Substance: 492 (AEHNFVAKA; listed as Homo sapiens) [compound 492]
- Wells positive [%] (CD8+ T cells; Table 10a): + (<20% = +)

Substance: 494 (KEITGFLLI; listed as Homo sapiens) [compound 494]
- Wells positive [%] (CD8+ T cells; Table 10a): ++ (20%-49% = ++)

Substance: 56 (ALEEGGGYIF; listed as Homo sapiens) [compound 56]
- Wells positive [%] (CD8+ T cells; Table 10b): + (<20% = +)
- Peptide exchange (MHC class I binding score, peptide exchange yield) (HLA-B*44:05): + (>10% = +)

Substance: 476 (MEHPGKLLF; listed as Homo sapiens) [compound 476]
- Wells positive [%] (CD8+ T cells; Table 10a): + (<20% = +)

Substance: 469 (SEAFPSRAL; listed as Homo sapiens) [compound 469]
- Wells positive [%] (CD8+ T cells; Table 10a): +++ (50%-69% = +++)

Substance: 485 (NEHPSNNW; listed as Homo sapiens) [compound 485]
- Wells positive [%] (CD8+ T cells; Table 10a): + (<20% = +)

Substance: 37 (IEQGRVVLW; listed as Homo sapiens) [compound 37]
- Wells positive [%] (CD8+ T cells; Table 10b): ++++ (>=70% = ++++)
- Peptide exchange (MHC class I binding score, peptide exchange yield) (HLA-B*44:05): ++++ (>75% = ++++)

Substance: 463 (QEMQHFLGL; listed as Homo sapiens) [compound 463]
- Wells positive [%] (CD8+ T cells; Table 10a): + (<20% = +)

Substance: 40 (REVDPDDSYVF; listed as Homo sapiens) [compound 40]
- Wells positive [%] (CD8+ T cells; Table 10b): + (<20% = +)
- Peptide exchange (MHC class I binding score, peptide exchange yield) (HLA-B*44:05): +++ (>50 = +++)

Substance: 477 (VYEKNGYIYF; listed as Homo sapiens) [compound 477]
- Wells positive [%] (CD8+ T cells; Table 10a): ++++ (>=70% = ++++)

Substance: 72 (AEVGDIIKVHF; listed as Homo sapiens) [compound 72]
- Wells positive [%] (CD8+ T cells; Table 10b): ++ (20%-49% = ++)
- Peptide exchange (MHC class I binding score, peptide exchange yield) (HLA-B*44:05): +++ (>50 = +++)

Substance: 495 (RENQVLGSGW; listed as Homo sapiens) [compound 495]
- Wells positive [%] (CD8+ T cells; Table 10a): +++ (50%-69% = +++)

Substance: 467 (FEYDFLLQRI; listed as Homo sapiens) [compound 467]
- Wells positive [%] (CD8+ T cells; Table 10a): + (<20% = +)

Substance: 487 (LEMPHYSTF; listed as Homo sapiens) [compound 487]
- Wells positive [%] (CD8+ T cells; Table 10a): +++ (50%-69% = +++)

Substance: 17 (SEIYQPRGF; listed as Homo sapiens) [compound 17]
- Wells positive [%] (CD8+ T cells; Table 10b): ++++ (>=70% = ++++)
- Peptide exchange (MHC class I binding score, peptide exchange yield) (HLA-B*44:05): +++ (>50 = +++)

Substance: 489 (SEYADTHYF; listed as Homo sapiens) [compound 489]
- Wells positive [%] (CD8+ T cells; Table 10a): +++ (50%-69% = +++)

Substance: 459 (KEVDPAGHSY; listed as Homo sapiens) [compound 459]
- Wells positive [%] (CD8+ T cells; Table 10a): ++ (20%-49% = ++)

Substance: 513 (AEKDGKLTDY; listed as Homo sapiens) [compound 513]
- Wells positive [%] (CD8+ T cells; Table 10a): + (<20% = +)

Substance: 509 (AESEDLAVHLY; listed as Homo sapiens) [compound 509]
- Wells positive [%] (CD8+ T cells; Table 10a): + (<20% = +)

Substance: 511 (AEAVLKTLQEL; listed as Homo sapiens) [compound 511]
- Wells positive [%] (CD8+ T cells; Table 10a): + (<20% = +)

Substance: 508 (AESEDLAVHL; listed as Homo sapiens) [compound 508]
- Wells positive [%] (CD8+ T cells; Table 10a): + (<20% = +)

Substance: 510 (SEDLAVHLY; listed as Homo sapiens) [compound 510]
- Wells positive [%] (CD8+ T cells; Table 10a): ++++ (>=70% = ++++)

Substance: 501 (KEGDLGGKQW; listed as Homo sapiens) [compound 501]
- Wells positive [%] (CD8+ T cells; Table 10a): + (<20% = +)

Substance: 474 (AEEEIMKKI; listed as Homo sapiens) [compound 474]
- Wells positive [%] (CD8+ T cells; Table 10a): + (<20% = +)

Substance: 506 (QESDLRLFL; listed as Homo sapiens) [compound 506]
- Wells positive [%] (CD8+ T cells; Table 10a): + (<20% = +)

Substance: 468 (QEQDVDLVQKY; listed as Homo sapiens) [compound 468]
- Wells positive [%] (CD8+ T cells; Table 10a): + (<20% = +)

Substance: 516 (DEYLIPQQGF; listed as Homo sapiens) [compound 516]
- Wells positive [%] (CD8+ T cells; Table 10a): + (<20% = +)

Substance: 497 (GEGAYGKVF; listed as Homo sapiens) [compound 497]
- Wells positive [%] (CD8+ T cells; Table 10a): +++ (50%-69% = +++)

Substance: 500 (QEVLLQTFL; listed as Homo sapiens) [compound 500]
- Wells positive [%] (CD8+ T cells; Table 10a): + (<20% = +)

Substance: 470 (EDAQGHIW; listed as Homo sapiens) [compound 470]
- Wells positive [%] (CD8+ T cells; Table 10a): ++ (20%-49% = ++)

Substance: 515 (AEGGKVPIKW; listed as Homo sapiens) [compound 515]
- Wells positive [%] (CD8+ T cells; Table 10a): ++ (20%-49% = ++)

Substance: 518 (FELPTGAGL; listed as Homo sapiens) [compound 518]
- Wells positive [%] (CD8+ T cells; Table 10a): ++ (20%-49% = ++)

Substance: 504 (KESQLPTVM; listed as Homo sapiens) [compound 504]
- Wells positive [%] (CD8+ T cells; Table 10a): ++ (20%-49% = ++)

Substance: 496 (AEIGEGAYGKVF; listed as Homo sapiens) [compound 496]
- Wells positive [%] (CD8+ T cells; Table 10a): ++ (20%-49% = ++)
